Test results from patent US20100041089A1, “IMPROVED METHOD FOR DETECTING CHEMICAL […]” (priority 2006, published 2010).

Tested on: yeast genes (expressed mRNA)
Test: DNA chip measurement of expressed mRNA of yeast genes after culture with a toxic chemical substance
Format: cell-based, Saccharomyces cerevisiae S288C
Method in brief: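 Expression is given as treated/untreated fluorescence ratio on a whole-genome yeast DNA chip, a ratio of two or more being significant. Log-phase S288C cultures in YPD at 25 °C received the chemical for 2 h at a dose that slows growth without killing. mRNA was reverse-transcribed with Cy3- or Cy5-dUTP.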

Structure (SMILES): O=[N+]([O-])c1cc[n+]([O-])c2ccccc12 [(5), 4-Nitroquinoline-N-oxide]
- The level of expressed mRNA in the presence of chemical substance/The level of expressed mRNA in the absence of chemical substance (yeast gene YAL053W, cultured two hours with substance): 0.8
- The level of expressed mRNA in the presence of chemical substance/The level of expressed mRNA in the absence of chemical substance (yeast gene YBL048W, cultured two hours with substance): 1.3
- The level of expressed mRNA in the presence of chemical substance/The level of expressed mRNA in the absence of chemical substance (yeast gene YBL107C, cultured two hours with substance): 1.2
- The level of expressed mRNA in the presence of chemical substance/The level of expressed mRNA in the absence of chemical substance (yeast gene YDL072C, cultured two hours with substance): 1.4
- The level of expressed mRNA in the presence of chemical substance/The level of expressed mRNA in the absence of chemical substance (yeast gene YDL204W, cultured two hours with substance): 1.0
- The level of expressed mRNA in the presence of chemical substance/The level of expressed mRNA in the absence of chemical substance (yeast gene YDL222C, cultured two hours with substance): 1.0
- The level of expressed mRNA in the presence of chemical substance/The level of expressed mRNA in the absence of chemical substance (yeast gene YDR003W, cultured two hours with substance): 1.8
- The level of expressed mRNA in the presence of chemical substance/The level of expressed mRNA in the absence of chemical substance (yeast gene YDR330W, cultured two hours with substance): 1.2
- The level of expressed mRNA in the presence of chemical substance/The level of expressed mRNA in the absence of chemical substance (yeast gene YDR357C, cultured two hours with substance): 2.0
- The level of expressed mRNA in the presence of chemical substance/The level of expressed mRNA in the absence of chemical substance (yeast gene YDR391C, cultured two hours with substance): 1.2
- The level of expressed mRNA in the presence of chemical substance/The level of expressed mRNA in the absence of chemical substance (yeast gene YDR411C, cultured two hours with substance): 1.6
- The level of expressed mRNA in the presence of chemical substance/The level of expressed mRNA in the absence of chemical substance (yeast gene YDR511W, cultured two hours with substance): 1.0
- The level of expressed mRNA in the presence of chemical substance/The level of expressed mRNA in the absence of chemical substance (yeast gene YDR531W, cultured two hours with substance): 2.0
- The level of expressed mRNA in the presence of chemical substance/The level of expressed mRNA in the absence of chemical substance (yeast gene YDR539W, cultured two hours with substance): 1.8
- The level of expressed mRNA in the presence of chemical substance/The level of expressed mRNA in the absence of chemical substance (yeast gene YDR545W, cultured two hours with substance): 1.4
- The level of expressed mRNA in the presence of chemical substance/The level of expressed mRNA in the absence of chemical substance (yeast gene YEL001C, cultured two hours with substance): 0.9
- The level of expressed mRNA in the presence of chemical substance/The level of expressed mRNA in the absence of chemical substance (yeast gene YER004W, cultured two hours with substance): 1.5
- The level of expressed mRNA in the presence of chemical substance/The level of expressed mRNA in the absence of chemical substance (yeast gene YER035W, cultured two hours with substance): 1.5
- The level of expressed mRNA in the presence of chemical substance/The level of expressed mRNA in the absence of chemical substance (yeast gene YER044C, cultured two hours with substance): 1.8
- The level of expressed mRNA in the presence of chemical substance/The level of expressed mRNA in the absence of chemical substance (yeast gene YER079W, cultured two hours with substance): 0.8
- The level of expressed mRNA in the presence of chemical substance/The level of expressed mRNA in the absence of chemical substance (yeast gene YER106W, cultured two hours with substance): 1.6
- The level of expressed mRNA in the presence of chemical substance/The level of expressed mRNA in the absence of chemical substance (yeast gene YER158C, cultured two hours with substance): 0.8
- The level of expressed mRNA in the presence of chemical substance/The level of expressed mRNA in the absence of chemical substance (yeast gene YER163C, cultured two hours with substance): 0.8
- The level of expressed mRNA in the presence of chemical substance/The level of expressed mRNA in the absence of chemical substance (yeast gene YER175C, cultured two hours with substance): 0.9
- The level of expressed mRNA in the presence of chemical substance/The level of expressed mRNA in the absence of chemical substance (yeast gene YFL006W, cultured two hours with substance): 1.4
- The level of expressed mRNA in the presence of chemical substance/The level of expressed mRNA in the absence of chemical substance (yeast gene YFL010C, cultured two hours with substance): 1.3
- The level of expressed mRNA in the presence of chemical substance/The level of expressed mRNA in the absence of chemical substance (yeast gene YFL024C, cultured two hours with substance): 1.1
- The level of expressed mRNA in the presence of chemical substance/The level of expressed mRNA in the absence of chemical substance (yeast gene YFL032W, cultured two hours with substance): 0.9
- The level of expressed mRNA in the presence of chemical substance/The level of expressed mRNA in the absence of chemical substance (yeast gene YGL037C, cultured two hours with substance): 0.9
- The level of expressed mRNA in the presence of chemical substance/The level of expressed mRNA in the absence of chemical substance (yeast gene YGL047W, cultured two hours with substance): 1.3
- The level of expressed mRNA in the presence of chemical substance/The level of expressed mRNA in the absence of chemical substance (yeast gene YGL053W, cultured two hours with substance): 2.0
- The level of expressed mRNA in the presence of chemical substance/The level of expressed mRNA in the absence of chemical substance (yeast gene YGL121C, cultured two hours with substance): 0.9
- The level of expressed mRNA in the presence of chemical substance/The level of expressed mRNA in the absence of chemical substance (yeast gene YGL199C, cultured two hours with substance): 0.7
- The level of expressed mRNA in the presence of chemical substance/The level of expressed mRNA in the absence of chemical substance (yeast gene YGR101W, cultured two hours with substance): 1.2
- The level of expressed mRNA in the presence of chemical substance/The level of expressed mRNA in the absence of chemical substance (yeast gene YGR110W, cultured two hours with substance): 0.9
- The level of expressed mRNA in the presence of chemical substance/The level of expressed mRNA in the absence of chemical substance (yeast gene YGR130C, cultured two hours with substance): 1.4
- The level of expressed mRNA in the presence of chemical substance/The level of expressed mRNA in the absence of chemical substance (yeast gene YGR154C, cultured two hours with substance): 1.2
- The level of expressed mRNA in the presence of chemical substance/The level of expressed mRNA in the absence of chemical substance (yeast gene YGR221C, cultured two hours with substance): 0.9
- The level of expressed mRNA in the presence of chemical substance/The level of expressed mRNA in the absence of chemical substance (yeast gene YHR053C (detoxification protein gene)): 2.9
- The level of expressed mRNA in the presence of chemical substance/The level of expressed mRNA in the absence of chemical substance (yeast gene YHR055C (detoxification protein gene)): 2.7
- The level of expressed mRNA in the presence of chemical substance/The level of expressed mRNA in the absence of chemical substance (yeast gene YHR136C): 2.4
- The level of expressed mRNA in the presence of chemical substance/The level of expressed mRNA in the absence of chemical substance (yeast gene YHR138C, cultured two hours with substance): 1.5
- The level of expressed mRNA in the presence of chemical substance/The level of expressed mRNA in the absence of chemical substance (yeast gene YHR199C, cultured two hours with substance): 1.2
- The level of expressed mRNA in the presence of chemical substance/The level of expressed mRNA in the absence of chemical substance (yeast gene YHR209W, cultured two hours with substance): 1.8
- The level of expressed mRNA in the presence of chemical substance/The level of expressed mRNA in the absence of chemical substance (yeast gene YIL023C, cultured two hours with substance): 1.3
- The level of expressed mRNA in the presence of chemical substance/The level of expressed mRNA in the absence of chemical substance (yeast gene YIL041W, cultured two hours with substance): 0.5
- The level of expressed mRNA in the presence of chemical substance/The level of expressed mRNA in the absence of chemical substance (yeast gene YIL087C, cultured two hours with substance): 1.4
- The level of expressed mRNA in the presence of chemical substance/The level of expressed mRNA in the absence of chemical substance (yeast gene YJL057C, cultured two hours with substance): 1.5
- The level of expressed mRNA in the presence of chemical substance/The level of expressed mRNA in the absence of chemical substance (yeast gene YJL066C, cultured two hours with substance): 0.8
- The level of expressed mRNA in the presence of chemical substance/The level of expressed mRNA in the absence of chemical substance (yeast gene YJL082W, cultured two hours with substance): 1.7
- The level of expressed mRNA in the presence of chemical substance/The level of expressed mRNA in the absence of chemical substance (yeast gene YJL151C, cultured two hours with substance): 1.3
- The level of expressed mRNA in the presence of chemical substance/The level of expressed mRNA in the absence of chemical substance (yeast gene YJL152W, cultured two hours with substance): 1.6
- The level of expressed mRNA in the presence of chemical substance/The level of expressed mRNA in the absence of chemical substance (yeast gene YJL161W, cultured two hours with substance): 1.1
- The level of expressed mRNA in the presence of chemical substance/The level of expressed mRNA in the absence of chemical substance (yeast gene YJL171C, cultured two hours with substance): 1.0
- The level of expressed mRNA in the presence of chemical substance/The level of expressed mRNA in the absence of chemical substance (yeast gene YJR008W, cultured two hours with substance): 1.4
- The level of expressed mRNA in the presence of chemical substance/The level of expressed mRNA in the absence of chemical substance (yeast gene YJR054W, cultured two hours with substance): 1.0
- The level of expressed mRNA in the presence of chemical substance/The level of expressed mRNA in the absence of chemical substance (yeast gene YKL071W, cultured two hours with substance): 1.1
